# Results published in US9096835B2, “DNA polymerase” (Medical Research Council, priority 2003, dated 2015).
# System: phage λ DNA template
# Assay: Long PCR
# Assay type: biochemical
# Conditions: standard PCR conditions, no auxiliary polymerases or processivity factors
# Protocol: A PCR assay was used to screen and rank clones. Briefly, clones were normalized for activity in PCR with matched primers 3, 4 and activity with mismatched primers 1 and 2 (1 μM each) determined at minimal cycle number (15-25 cycles). Extension capability for different mismatches was determined by the same assay using mismatch primers 2 (C•C mismatch), 5 (A•A mismatch), 6 (G•G mismatch), 7 (G•A mismatch) with matched primer 3 or primer 1 (A•G mismatch) with matched primer 4. Incorporation of unnatural substrates in 50 cycle PCR was carried out using standard conditions and 50 μM […] dNTPs (Promega) or 50 μM FITC-12-dATP (Perkin-Elmer), Rhodamine-5-dUTP (Perkin-Elmer) or Biotin-16-dUTP (Roche) with equivalent amounts of the other 3 dNTPs (all 50 μM). Long PCR was carried out using a two-step cycling protocol as described (22) 94° C. for 2 minutes, followed by 20 cycles of (94° C. 15 sec, 68° C. 30 min) using 5 ng of phage λ DNA (New England Biolabs) template and either primers 9, 10, 11 with primer 12 or primer 13 with primers 10, 14.
substance,measurement,setting,value
wtTaq: Thermus aquaticus (Taq) wild type DNA polymerase [reference compound],size of targets amplified in long PCR,,≤ 9 kb
same,size of targets amplified in long PCR,listed as WtTaq,≤ 8.8 kb
